Results reported in US10562912B2 (C&C Research Laboratories, priority 2013, dated 2020).

Tests used:
Assay type in all cases: cell-based
[1] = tested on: LNCaP; assay: Cell growth inhibition assay, prostate cancer cell line LNCaP (medium with 10 ng/mL IL-6); details: Homo sapiens, medium supplemented with 10 ng/mL of IL-6, 10,000 cells/well
[2] = tested on: AGS; assay: Cell growth inhibition assay, stomach cancer cell line AGS; details: Homo sapiens; AGS stomach cancer cell line, 3,000 cells/well
[3] = tested on: MDA-MB-231; assay: Cell growth inhibition assay, breast cancer cell line MDA-MB-231; details: Homo sapiens; MDA-MB-231 breast cancer cell line, 5,000 cells/well
[4] = target: T1, STAT3 (Homo sapiens, UniProt P40763); assay: STAT3 reporter gene assay (luciferase), LNCaP stable cell line (pSTAT3-TA-luc), IL-6 stimulation
T1 construct: plasmid pSTAT3-TA-luc), which contains a stably operating STAT3 promoter; endogenous in cells
Outline: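 Cytotoxicity was run on a duplicate plate with CellTiter-Glo, while the other plate gave luciferase read-outs from lysed LNCaP pSTAT3-TA-luc reporter cells. Cells were treated with graded compound concentrations plus IL-6 (10 ng/mL final) for 24–48 h in 3% DCC-FBS medium. Unstimulated and stimulated wells served as negative and positive controls.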

T1 sequence (P40763 whole entry): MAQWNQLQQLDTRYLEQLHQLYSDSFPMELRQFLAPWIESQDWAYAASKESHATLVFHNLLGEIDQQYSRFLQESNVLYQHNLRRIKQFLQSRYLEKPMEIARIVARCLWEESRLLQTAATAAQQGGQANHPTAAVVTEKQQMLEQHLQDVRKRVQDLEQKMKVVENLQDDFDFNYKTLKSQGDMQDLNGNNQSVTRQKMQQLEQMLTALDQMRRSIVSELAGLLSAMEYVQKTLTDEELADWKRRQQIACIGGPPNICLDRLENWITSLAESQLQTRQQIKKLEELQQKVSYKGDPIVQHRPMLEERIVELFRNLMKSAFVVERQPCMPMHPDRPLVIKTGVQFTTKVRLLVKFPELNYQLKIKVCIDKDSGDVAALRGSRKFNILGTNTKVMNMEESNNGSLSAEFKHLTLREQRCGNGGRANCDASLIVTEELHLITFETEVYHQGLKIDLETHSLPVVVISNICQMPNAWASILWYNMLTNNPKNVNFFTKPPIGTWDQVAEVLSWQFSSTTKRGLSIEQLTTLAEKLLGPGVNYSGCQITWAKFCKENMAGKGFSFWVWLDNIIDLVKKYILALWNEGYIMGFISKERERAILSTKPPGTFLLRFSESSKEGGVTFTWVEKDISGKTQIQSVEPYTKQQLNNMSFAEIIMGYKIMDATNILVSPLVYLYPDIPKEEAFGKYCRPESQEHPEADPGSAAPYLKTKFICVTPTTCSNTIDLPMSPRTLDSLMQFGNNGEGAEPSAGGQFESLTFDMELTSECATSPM

IC50 [1] [µM] | IC50 [2] [µM] | IC50 [3] [µM] | IC50 [4] [µM] | SMILES
4.1 | 2.7 | 0.92 | 0.71 | CS(=O)(=O)Nc1ccc2cc(C(=O)Nc3cccc(-c4ccccc4C(F)(F)F)c3)[nH]c2c1 [Example 260, 6-(methylsulfonamido)-N-(2′-(trifluoromethyl)-[1,1′-biphenyl]-3-yl)-1H-indole-2-carboxamide]
9 | 5.7 | > 10 | 3.3 | CS(=O)(=O)Nc1ccc2c(C(=O)Nc3cccc(-c4ccc(F)cc4F)c3)c[nH]c2c1 [Example 275, N-(2′,4′-difluoro-[1,1′-biphenyl]-3-yl)-6-(methylsulfonamido)-1H-indole-3-carboxamide]
4.6 | 24.6 | 1 | 2.7 | CS(=O)(=O)Nc1ccc2cc(C(=O)Nc3cccc(-c4cccnc4C(F)(F)F)c3)[nH]c2c1 [Example 293, 6-(methylsulfonamido)-N-(3-(2-(trifluoromethyl)pyridin-3-yl)phenyl)-1H-indole-2-carboxamide]
3.9 | 5.7 | 0.72 | 3.3 | CS(=O)(=O)Nc1ccc2cc(C(=O)Nc3cc(C#N)cc(-c4ccc(F)cc4F)c3)[nH]c2c1 [Example 301, N-(5-cyano-2′,4′-difluoro-[1,1′-biphenyl]-3-yl)-6-(methylsulfonamido)-1H-indole-2-carboxamide]
6.2 | 5.3 | 7.5 | 3.3 | CN(c1ccc2cc(C(=O)Nc3cc(Br)cc(-c4ccc(F)cc4F)c3)n(C)c2c1)S(C)(=O)=O [Example 341, N-(5-bromo-2′,4′-difluoro-[1,1′-biphenyl]-3-yl)-1-methyl-6-(N-methylmethylsulfonamido)-1H-indole-2-carboxamide]
5 | 9.6 | 0.52 | 0.39 | CN(c1ccc2cc(C(=O)Nc3cc(Br)cc(-c4ccc(F)cc4F)c3)[nH]c2c1)S(C)(=O)=O [Example 342, N-(5-bromo-2′,4′-difluoro-[1,1′-biphenyl]-3-yl)-6-(N-methylmethylsulfonamido)-1H-indole-2-carboxamide]
7.9 | 19.7 | 0.61 | 1.5 | COc1cc(NC(=O)c2cc3ccc(N(C)S(C)(=O)=O)cc3[nH]2)cc(-c2ccc(F)cc2F)c1 [Example 347, N-(2′,4′-difluoro-5-methoxy-[1,1′-biphenyl]-3-yl)-6-(N-methylmethylsulfonamido)-1H-indole-2-carboxamide]
7.2 | 4.8 | > 10 | > 10 | COc1cc(NC(=O)c2cc3ccc(N(C)S(C)(=O)=O)cc3n2C)cc(-c2ccc(F)cc2F)c1 [Example 348, N-(2′,4′-difluoro-5-methoxy-[1,1′-biphenyl]-3-yl)-1-methyl-6-(N-methylmethylsulfonamido)-1H-indole-2-carboxamide]
6.2 | 8.9 | 0.58 | 1.2 | CS(=O)(=O)Nc1ccc2cc(C(=O)Nc3cc(OCC(F)F)cc(-c4ccc(F)cc4F)c3)[nH]c2c1 [Example 366, N-(5-(2,2-difluoroethoxy)-2′,4′-difluoro-[1,1′-biphenyl]-3-yl)-6-(methylsulfonamido)-1H-indole-2-carboxamide]
9.8 | 11.5 | 1.7 | 2.7 | CS(=O)(=O)Nc1ccc2cc(C(=O)Nc3cc(OCC#N)cc(-c4ccc(F)cc4F)c3)[nH]c2c1 [Example 368, N-(5-(cyanomethoxy)-2′,4′-difluoro-[1,1′-biphenyl]-3-yl)-6-(methylsulfonamido)-1H-indole-2-carboxamide]
2.5 | 9.6 | 1.1 | 3.7 | CS(=O)(=O)Nc1ccc2cc(C(=O)Nc3cccc(C(F)(F)c4cccc(C#N)c4)c3)[nH]c2c1 [Example 390, N-(3-((3-cyanophenyl)difluoromethyl)phenyl)-6-(methylsulfonamido)-1H-indole-2-carboxamide]
> 10 | 20 |  | 3.3 | COc1ccc(S(=O)(=O)c2cccc(NC(=O)c3cc4ccc(NS(C)(=O)=O)cc4[nH]3)c2)cc1 [Example 394, N-(3-((4-methoxyphenyl)sulfonyl)phenyl)-6-(methylsulfonamido)-1H-indole-2-carboxamide]
> 10 | 22.1 |  | 6.3 | CS(=O)(=O)Nc1ccc2cc(C(=O)Nc3cccc(S(=O)(=O)c4cccc(C#N)c4)c3)[nH]c2c1 [Example 402, N-(3-((3-cyanophenyl)sulfonyl)phenyl)-6-(methylsulfonamido)-1H-indole-2-carboxamide]
> 10 | 34.4 |  | 8.2 | CS(=O)(=O)Nc1ccc2cc(C(=O)Nc3cccc(S(=O)(=O)c4ccccn4)c3)[nH]c2c1 [Example 403, 6-(methylsulfonamido)-N-(3-(pyridin-2-ylsulfonyl)phenyl)-1H-indole-2-carboxamide]
> 10 | 30.3 |  | > 10 | CS(=O)(=O)Nc1ccc2cc(C(=O)Nc3cccc(S(=O)(=O)c4cccnc4)c3)[nH]c2c1 [Example 404, 6-(methylsulfonamido)-N-(3-(pyridin-3-ylsulfonyl)phenyl)-1H-indole-2-carboxamide]
8.6 | 14.6 |  | 2.4 | CS(=O)(=O)Nc1ccc2cc(C(=O)Nc3cccc(S(=O)(=O)c4cccc(Cl)c4)c3)[nH]c2c1 [Example 405, N-(3-((3-chlorophenyl)sulfonyl)phenyl)-6-(methylsulfonamido)-1H-indole-2-carboxamide]
> 10 | 17.6 |  | > 10 | CS(=O)(=O)Nc1ccc2cc(C(=O)Nc3cccc(S(=O)(=O)c4cccc(C#N)n4)c3)[nH]c2c1 [Example 406, N-(3-((6-cyanopyridin-2-yl)sulfonyl)phenyl)-6-(methylsulfonamido)-1H-indole-2-carboxamide]
> 10 | 45.5 |  | 5.7 | COc1cncc(S(=O)(=O)c2cccc(NC(=O)c3cc4ccc(NS(C)(=O)=O)cc4[nH]3)c2)c1 [Example 407, N-(3-((5-methoxypyridin-3-yl)sulfonyl)phenyl)-6-(methylsulfonamido)-1H-indole-2-carboxamide]
> 10 | 24.2 |  | 2.4 | COc1cccc(S(=O)(=O)c2cccc(NC(=O)c3cc4ccc(NS(C)(=O)=O)cc4[nH]3)c2)n1 [Example 408, N-(3-((6-methoxypyridin-2-yl)sulfonyl)phenyl)-6-(methylsulfonamido)-1H-indole-2-carboxamide]
> 10 | 17.3 |  | 2.9 | CS(=O)(=O)Nc1ccc2cc(C(=O)Nc3cccc(S(=O)(=O)c4ccc5sccc5c4)c3)[nH]c2c1 [Example 409, N-(3-(benzo[b]thiophen-5-ylsulfonyl)phenyl)-6-(methylsulfonamido)-1H-indole-2-carboxamide]
> 10 | 31.3 |  | 3.1 | Cc1nc2ccc(S(=O)(=O)c3cccc(NC(=O)c4cc5ccc(NS(C)(=O)=O)cc5[nH]4)c3)cc2s1 [Example 410, N-(3-((2-methylbenzo[d]thiazol-6-yl)sulfonyl)phenyl)-6-(methylsulfonamido)-1H-indole-2-carboxamide]
> 10 | 35.2 |  | 3.6 | COc1cc(C#N)cc(S(=O)(=O)c2cccc(NC(=O)c3cc4ccc(NS(C)(=O)=O)cc4[nH]3)c2)c1 [Example 411, N-(3-((3-cyano-5-methoxyphenyl)sulfonyl)phenyl)-6-(methylsulfonamido)-1H-indole-2-carboxamide]
> 10 | 22 |  | 3.4 | CS(=O)(=O)Nc1ccc2cc(C(=O)Nc3cccc(S(=O)(=O)c4cccc(CC#N)c4)c3)[nH]c2c1 [Example 412, N-(3-((3-(cyanomethyl)phenyl)sulfonyl)phenyl)-6-(methylsulfonamido)-1H-indole-2-carboxamide]
> 10 | > 50 |  | > 10 | CS(=O)(=O)Nc1ccc2cc(C(=O)Nc3cccc(S(=O)(=O)c4ccc5c(=O)ccoc5c4)c3)[nH]c2c1 [Example 413, 6-(methylsulfonamido)-N-(3-((4-oxo-4H-chromen-7-yl)sulfonyl)phenyl)-1H-indole-2-carboxamide]
9.6 | 14.4 |  | 1.7 | CS(=O)(=O)Nc1ccc2cc(C(=O)Nc3cccc(S(=O)(=O)c4cccc(Br)c4)c3)[nH]c2c1 [Example 414, N-(3-((3-bromophenyl)sulfonyl)phenyl)-6-(methylsulfonamido)-1H-indole-2-carboxamide]

SMILES | IC50 [1] [µM] | IC50 [2] [µM] | IC50 [3] [µM] | IC50 [4] [µM]
CC(C)COc1cc(NC(=O)c2cc3ccc(NS(C)(=O)=O)cc3[nH]2)cc(-c2ccc(F)cc2F)c1 [Example 367, N-(2′,4′-difluoro-5-isobutoxy-[1,1′-biphenyl]-3-yl)-6-(methylsulfonamido)-1H-indole-2-carboxamide] | 7.4 | 9.5 | 1.1 | 0.38
CC(C)COc1cc(NC(=O)c2cc3ccc(NS(C)(=O)=O)cc3[nH]2)cc(C(F)(F)c2cccc(C#N)c2)c1 [Example 392, N-(3-((3-cyanophenyl)difluoromethyl)-5-isobutoxyphenyl)-6-(methylsulfonamido)-1H-indole-2-carboxamide] | 8.3 | 9 |  | 1.8
